Data set [1] deals with murine IL-5 receptor α mRNA, membrane form. Description: Membrane IL-5 receptor α mRNA by Northern blot in BCL1 cells. The following applies: BCL1 cells, 10 μM; for % inhibition of membrane IL-5 Rα: Northern blot, compared to untreated control, 2′-MOE gapmers; for % control membrane IL-5 Rα / % inhib'n membrane IL-5 Rα: 24 hours, uniform 2′-MOE. It is filed as cell-based, mouse. From the text:
(§1) Murine BCL1 cells were chosen for screening antisense oligonucleotides targeted to murine IL-5 receptor α. These are B-cell leukemia cells derived from a spontaneously arising tumor of BALB/c origin, and proliferate in response to murine or human IL-5. This is a CD5+line which resembles a subset of human chronic lymphocytic leukemia tumors and secretes IgM upon lipopolysaccharide stimulation. Cells were obtained from the American Type Culture Collection and cultured in RPMI 1640 medium supplemented with 10% heat-inactivated fetal bovine serum (Sigma Chemical Co., St. Louis, Mo.), 10 mM Hepes, pH 7.2, 50 μM 2-ME, 2 mM L-glutamine, 100 U/ml penicillin and 100 μg/ml streptomycin (Gibco, Grand Island, N.Y.).
(§2) The effect of these compounds on both membrane and soluble forms of murine IL-5 receptor α were measured and are shown in Table 1B. Oligonucleotides were screened in BCL1 cells at a dose of 10 μM and IL-5 receptor α mRNA was measured by Northern blot. Percent inhibition is compared to untreated (no oligo) control.
(§3) Total BCL1 cellular RNA was isolated using the RNeasy™ kit (Qiagen, Santa Clara Calif.) . Northern blotting was performed using standard methods. The cDNA probes were generated from oligonucleotides matching the exon sequences of either exons 2, 8, 9 or 10. Signals were quantitated using a Molecular Dynamics PhosphorImager.

Data set [2] has as its system murine IL-5 receptor α mRNA, soluble form. Description: Soluble IL-5 receptor α mRNA by Northern blot in BCL1 cells. It is filed as cell-based, mouse. The note with it: BCL1 cells, 10 μM; for % inhibition of soluble IL-5 Rα: Northern blot, compared to untreated control, 2′-MOE gapmers; for % control soluble IL-5 Rα: 24 hours, uniform 2′-MOE.
Text: as §1, §2, §3

In the oligonucleotide strings, read from the 5' end, every base follows the letter of its sugar. An asterisk marks phosphorothioate; unmarked linkages are phosphodiester. Other units and linkages are bracketed, terminal groups are in braces. A string of capitals states the bases alone. e = 2'-O-(2-methoxyethyl) (MOE); [5mC] = 5-methylcytosine; d = 2'-deoxy (DNA)

In the case of “18004 (TGTTGGGAGCACAATGAGAT; antisense; listed as DNA, chemistry not fully specified) [compound 18004]”, in data set [1], the “% inhibition of membrane IL-5 Rα” value is given as 10%. In addition, the “% inhibition of soluble IL-5 Rα” value in data set [2] is 20%.

Take “18005 (AGCAGGCAGCTGTTGGGAGC; antisense; listed as DNA, chemistry not fully specified) [compound 18005]”: the “% inhibition of membrane IL-5 Rα” value in data set [1] is given as 55%. Besides, the “% inhibition of soluble IL-5 Rα” value in data set [2] amounted to 59%.

In the case of “18006 (TGAGAAGATTAACAAGACGA; antisense; listed as DNA, chemistry not fully specified) [compound 18006]”, in data set [1], the “% inhibition of membrane IL-5 Rα” value turned out to be 59%. In data set [2], the “% inhibition of soluble IL-5 Rα” value is listed as 65%.

As for “18007 (eT*eG*e[5mC]*eA*eG*dA*dT*dG*dA*dG*dT*dG*dA*dG*dA*eA*eG*eA*eT*eT; antisense) [compound 18007]”, the “% inhibition of membrane IL-5 Rα” value in data set [1] was 65%. In addition, the “% inhibition of soluble IL-5 Rα” value in data set [2] is reported as 65%.

“18008 (ACTCTGCAGATGAGTGAGAA; antisense; listed as DNA, chemistry not fully specified) [compound 18008]”: in data set [1], the “% inhibition of membrane IL-5 Rα” value is 75%. The “% inhibition of soluble IL-5 Rα” value in data set [2] worked out at 75%.

On to “21750 (eG*eA*e[5mC]*eT*eT*e[5mC]*e[5mC]*eT*eT*eT*e[5mC]*e[5mC]*eT*eT*eT*e[5mC]*e[5mC]*eT*eG*eG) [compound 21750]”, for which, in data set [1], the “% control membrane IL-5 Rα” value worked out at 8% and the “% inhib'n membrane IL-5 Rα” value was found to be 92%. In addition, the “% control soluble IL-5 Rα” value in data set [2] amounted to 197%.

Take “21751 (e[5mC]*eA*eA*eG*eG*eA*e[5mC]*eT*eT*e[5mC]*e[5mC]*eT*eT*eT*e[5mC]*e[5mC]*eT*eT*eT*e[5mC]; splice-switching) [compound 21751]”: in data set [1], the “% control membrane IL-5 Rα” value was 9% and the “% inhib'n membrane IL-5 Rα” value worked out at 91%. Moreover, the “% control soluble IL-5 Rα” value in data set [2] came out at 191%.

As for “21752 (eG*e[5mC]*e[5mC]*eA*eT*eT*e[5mC]*eT*eA*e[5mC]*e[5mC]*eA*eA*eG*eG*eA*e[5mC]*eT*eT*e[5mC]) [compound 21752]”, the “% control membrane IL-5 Rα” value in data set [1] is 6%. For the same substance, in data set [2], the “% control soluble IL-5 Rα” value amounted to 194%.

Consider “21753 (eA*e[5mC]*eA*eA*eT*eG*eA*eG*eA*eT*eG*e[5mC]*e[5mC]*eA*eT*eT*e[5mC]*eT*eA*e[5mC]; splice-switching) [compound 21753]”, for which, in data set [1], the “% control membrane IL-5 Rα” value is 6% and the “% inhib'n membrane IL-5 Rα” value is on record as 94%. In data set [2], the “% control soluble IL-5 Rα” value was 175%.

On to “21754 (eT*eG*eT*eT*eG*eG*eG*eA*eG*e[5mC]*eA*e[5mC]*eA*eA*eT*eG*eA*eG*eA*eT; splice-switching) [compound 21754]”, for which, in data set [1], the “% control membrane IL-5 Rα” value is 8% and the “% inhib'n membrane IL-5 Rα” value is 92%. In data set [2], the “% control soluble IL-5 Rα” value is recorded as 184%.

As to “21755 (eA*eG*e[5mC]*eA*eG*eG*e[5mC]*eA*eG*e[5mC]*eT*eG*eT*eT*eG*eG*eG*eA*eG*e[5mC]; splice-switching) [compound 21755]”, in data set [1], the “% control membrane IL-5 Rα” value worked out at 16% and the “% inhib'n membrane IL-5 Rα” value was 84%. Besides, the “% control soluble IL-5 Rα” value in data set [2] is 181%.

With “21756 (eA*eA*e[5mC]*eA*eA*eG*eA*e[5mC]*eG*eA*eA*eG*e[5mC]*eA*eG*eG*e[5mC]*eA*eG*e[5mC]; splice-switching) [compound 21756]”, in data set [1], the “% control membrane IL-5 Rα” value is given as 6% and the “% inhib'n membrane IL-5 Rα” value was determined as 94%. Further, the “% control soluble IL-5 Rα” value in data set [2] stood at 166%.

In the case of “21757 (eT*eG*eA*eG*eA*eA*eG*eA*eT*eT*eA*eA*e[5mC]*eA*eA*eG*eA*e[5mC]*eG*eA; splice-switching) [compound 21757]”, in data set [1], the “% control membrane IL-5 Rα” value came to 19% and the “% inhib'n membrane IL-5 Rα” value was 81%. Further, in data set [2], the “% control soluble IL-5 Rα” value was determined as 144%.
